# Test results taken from patent publication US20050075398A1, “Neuroprotectin D1 protects against cellular apoptosis, stroke damage, alzheimer's disease and retinal diseases” (priority 2003, published 2005).
# How the values were obtained:
# [1] = tested on: polymorphonuclear leukocyte infiltration; assay: Zymosan-induced peritonitis, leukocyte infiltration; type: in vivo, mouse; conditions: 100 ng i.v. bolus 1.5 min before Zymosan A; lavage at 2 h
# Protocol: The inhibition of leukocyte infiltration in zymosan-induced peritonitis by 4,17S-diHDHA and 10,17S-docosatriene (NPD1) was tested. […] Peritonitis was induced in 6- to 8-week-old male FVB mice (Charles River Laboratories) by peritoneal injection of 1 mg Zymosan A. The compounds 4,17S- and 10,17S-diHDHA were injected by intravenous bolus injection, 1.5 minutes before Zymosan A treatment. Two hours after induction of peritonitis, rapid peritoneal lavages were collected, and cell type enumeration was performed.
# [2] = tested on: AP1-DNA binding activity; assay: EMSA of AP1 in IL-1β-exposed human neural progenitor cells; type: cell-based; conditions: HN progenitor cells
# Protocol: Human neural (HN) progenitor cells in primary culture. HN cells were grown to ˜70% confluence (˜50,000 cells per 3.5-cm diameter well) in 6-well COSTAR plates at 37° C., 5% CO2/20% O2/75% N2 in humidified air at 1 atm (normoxic conditions) in NPMM medium (Clonetics CC-4241) supplemented with hFGF, NSF-1, hEGF, GA-1000, as described by the manufacturer (Clonetics, Walkersville, Md.). HN cells tested negative for HIV-1, hepatitis B and C, mycoplasma, bacteria, yeast, and fungi, and positive for the glial and neuronal markers GFAP, MAP2, and β-tubulin III (Clonetics). […]
# Electrophoretic mobility-shift assay (EMSA) of human AP1, HIF-1α, NF-κBp50/p65, and STAT-1α. Nuclear protein extracts (NPXTs) were prepared from one to three 3.5 cm-diameter wells of HN cells and quantitated. NPXTs (5 μg) derived from HN cells were incubated with[γ-^32P]-ATP (˜3000 Ci/mmol)-end-labeled AP1, HIF-1α, NF-κκBp50/p65, or STAT-1α consensus and mutant oligonucleotides in 5-μl volumes, reacted for 30 min on ice, analyzed on 5% or 10% acrylamide/90 mM Tris-borate pH 8.4, 1 mM EDTA (TBE) gels, dried onto 2-mm Whatman filter paper at 80° C. for 2 h, and phosphorimaged using a Typhoon Variable Mode Imager (Amersham Pharmacia Biotech, Piscataway, N.J. ).
# [3] = tested on: IL-1β gene expression; assay: HGU133 GeneChip DNA array in HN cells: IL-1β; type: cell-based, human; conditions: Aβ42 25 μM, DHA 50 nM or NPD1 50 nM, 18 h, nsc = no significant change
# [4] = tested on: Bax gene expression; assay: HGU133 GeneChip DNA array in HN cells: Bax; type: cell-based, human; conditions: Aβ42 25 μM, DHA 50 nM or NPD1 50 nM, 18 h, nsc = no significant change
# Description: Total RNA quality and abundance were profiled using RNA Nano LabChips (Caliper Technologies, Mountainview, Calif.; Agilent Technologies, Palo Alto, Calif.).
# Biotinylated antisense cRNAs were synthesized from cDNA using the Superscript Choice System (Invitrogen) and Enzo Biorray High Yield RNA Transcript Labeling kits according to the manufacturer's protocols (Affymetrix) and as described in Colangelo, V., Schurr, J., Ball, M. J., Pelaez, R. P., Bazan, N. G., Lukiw, W. J. (2002) J. Neurosci. […] Probes were hybridized against HU133Av2 GeneChip DNA arrays that interrogate approximately 33,000 full-length mouse genes and expressed sequence tag (EST) clusters.
# DNA arrays were scanned at 570 nm, and significant features were extracted using Data Mining Tool 3.0 (Affymetrix). Data analyses and graphic presentations were performed using Microarray Suite 5.0 (Affymetrix), GeneSpring 6.0 (Silicon Genetics, Redwood City, Calif.) and Adobe Photoshop 6.0 (Adobe Systems, San Jose, Calif.). Volcano plots were plotted representing total gene expression patterns as a function of fold-change as compared to expression patterns of age-matched controls as plotted against p, as calculated by an analysis of variance (ANOVA). […] Statistical significance was analyzed using a two-way factorial analysis of variance (p, ANOVA; Statistical Analysis System; SAS Institute, Cary, N.C. ).
# [5] = tested on: ARPE-19 cells; assay: ELISA detection of mono- and oligonucleosomes; type: cell-based, human; conditions: 50 nM
# Protocol: Assessment of apoptosis by mono- and oligonucleosome analysis: Cells were homogenized in a lysis buffer and 20-μl aliquots were applied on streptavidin-coated 96-well plates. Cells were incubated for 2 h with 80 μl incubation buffer containing the monoclonal antibodies directed against DNA and histones for detection of mono- and oligonucleosomes (Roche Diagnostics Corporation Cat. # 1774425). After the unreacted antibodies were washed away, the immune complexes of DNA-histone-antibodies remain bound to the streptavidin-coated plates, where detection was attained by horseradish-peroxidase reaction.
# DNA fragmentation was also detected by ELISA detection of mono- and oligonucleosomes in ARPE cells (Roche Diagnostics Corporation Cat. # 1774425). Cells were homogenized in a lysis buffer, and 20-μl aliquots were applied on streptavidin-coated 96-well plates. Cells were incubated for 2 h with 80 μl incubation buffer containing the monoclonal antibodies directed against DNA and histones for detection of mono- and oligonucleosomes. After the unreacted antibodies were washed away, the immune complexes of DNA-histone-antibodies remained bound to the streptavidin-coated plates, where detection is obtained through horseradish-peroxidase reaction. Quantitative analysis was performed in a Spectramax-250 (Molecular Devices) spectrophotometer.
# [6] = tested on: Bcl-xL; assay: Western blot of Bcl-xL in ARPE-19 cells under TNFα/H2O2; type: cell-based, human; conditions: 50 nM; TNFα plus H2O2 (400 or 800 μM) 6 h
# Protocol: Analysis of pro- and anti-apoptotic proteins in ARPE-19 cells: Bcl-2 family proteins were analyzed by Western-blot analysis. In brief, 20-μg equivalents of each cell extract were subjected to electrophoresis on a 8-16% gel (Promega, Madison, Wis.) at 125 volts for 2 h. The proteins were transferred to nitrocellulose membrane at 30 volts for 1 h at 4° C. The membranes were subjected to treatment with primary antibodies of Bcl-2, Bcl-xL, Bax, and Bad for 1 h at room temperature, and probed 30 min with secondary antibody, goat anti-rabbit Ig:HRPO and HRP-conjugated anti-biotin antibody. (BD Sciences—Pharminogen, San Diego, Calif.) Then proteins were evaluated using an ECL kit. (Amersham Biosciences Corp., Piscataway, N.J.)
# Using the same TNFα/H2O2 concentrations, Bcl-2 proteins were assayed. Cells were grown for 72 h after plating, placed in serum-free medium for 1 h, then incubated with TNFα/H2O2 for 6 h. Protein expression and Western-blot analysis were performed as described in Example 13. Data in FIGS. 14A, 14B, 14C and 14D represent four independent experiments with triplicate samples in each case. Anti-apoptotic protein Bcl-xL was enhanced in ARPE-19 cells by TNFα/H2O2 (800 μM) (FIG. 14B, first bar), whereas Bcl-2 was not changed (FIG. 14A, first bar).
# [7] = tested on: ARPE-19 cells; assay: A2E-induced apoptosis in ARPE-19 cells (Hoechst staining); type: cell-based, human; conditions: A2E up to 200 μM
# Protocol: To test the ability of NPD1 to inhibit A2E oxidative stress, ARPE-19 cells grown in 6-well plates were transfected by Fugene 6 with NF-κB promoter sequence linked to a luciferase reporter gene and with IκB-EGFP. Promoterless β-galactosidase was co-transfected in ARPE-19 cells to determine the transfection efficiency. Four hours after transfection, cells were washed and further incubated 8 to 10 h before adding inducers. Two different set of cells were used. One set of cells was serum-starved 5 h before the addition of A2E and TNF-α/H2O2, and further incubated for 20-24 h before harvesting. The other set of cells was not serum-starved or further incubated. Luciferase activity was measured. The IκB-EGFP probe was measured by fluorescence confocal microscopy, and Hoechst-positive cells were identified.
# [8] = tested on: caspase-3; assay: Caspase-3 cleavage in ARPE-19 cells stably transfected with lentivirus DEVD construct; conditions: 50 nM
# Description: The values shown are the average of triplicate samples in three independent experiments.
smiles,measurement,setting,value
"CC/C=C\C[C@H](O)\C=C/C=C/C=C/[C@H](O)C/C=C\C/C=C\CCC(=O)O [NPD1, 10,17S-docosatriene]",inhibition of leukocyte infiltration,[1],potent inhibition
same,effect on IL-1β-induced AP1-DNA binding activity,[2],did not affect
same,"IL-1β gene expression, fold change over untreated controls",[3],nsc
same,"Bax gene expression, fold change over untreated controls",[4],nsc
same,effect on TNFα/H2O2-induced accumulation of mono- and oligonucleosomes,[5],inhibited
same,effect on Bcl-xL expression,[6],increased expression
same,effect on A2E-induced apoptosis,[7],inhibited
same,inhibition of caspase-3 activation,[8]; 400 μM H2O2 with TNFα,60%
same,inhibition of caspase-3 activation,[8]; 800 μM H2O2 with TNFα,50%
